Laboratory results published in patent US20130338457A1, “METHOD AND APPARATUS FOR DETECTING DISEASES ASSOCIATED WITH THE EYE” (THE REGENTS OF THE UNIVERSITY OF MICHIGAN, priority 2007, published 2013).

Columns and labels:
Assay type in all cases: cell-based
[1] = tested on: human retinal pigment epithelial (HRPE) cells; assay: Flavoprotein autofluorescence (FA) measurement in cultured HRPE cells; conditions: for FA after exposure to pro-apoptotic agent: exposure for 2 hours, H2O2 0.2 mM, C2-ceramide 50 μM
Description: HRPE cells were isolated from donor eyes by enzymatic digestion as previously described. Briefly, the sensory retina was separated gently from the HRPE monolayer, and the HRPE cells were removed from Bruch's membrane using one hour incubation with papain. Isolated HRPE cells were grown into Falcon Primaria flasks in DMEM/F12 containing 10% fetal bovine serum (FBS), penicillin G (100 U ml-1), streptomycin sulfate (100 μg ml-1), and amphotericin B (0.25 μg ml-1) at 37° C. in a humidified incubator under 5% CO2. In all experiments, parallel assays were performed on the second to fourth passage of HRPE cells. HRPE cells were seeded into tissue culture 96-well assay plates (black walls with clear bottoms (Costar) at the same time and density from the same parent cultures, and grown in phenol red-free complete DMEM/F12 for at least 7 days. All experiments were repeated at least three times on different cell lines.
HRPE cells in 96-well plates were washed with Hanks' balanced salt solution (HBSS), containing Ca2+ and Mg2+, without phenol red. […] Other HRPE cells in 96-well plates were pre-incubated for 30 minutes with or without dihydroceramide C2 (50 μM), followed by stimulation with C2-ceramide (50 μM) for 2 hours in the presence and absence of the same inhibitor used during pre-incubation.
FA was measured with a photomicroscope equipped with narrow bandwidth excitation and emission filters of 465 nm and 535 nm, respectively.

human retina cells = assay: FA production in fresh human retina pieces ex vivo; conditions: FIG. 25; for FA production with apoptotic stimulus: human retina pieces
Description: (§1) To provide an in vitro correlate of the imaging method described above, studies were pursued of: RPE cells in vitro and fresh pieces of rat and human retina ex vivo. Both retinal fragments and RPE cells serve as good in vitro models of the human retina. To model the apoptotic events taking place in the eye, apoptotic stimuli (H2O2 and ceramide) were added to these samples. These stimuli are particularly judicious choices because both oxidative molecules and ceramide have been reported to be key mediators of retinal apoptosis.
(§2) At lethal levels, FA correlates with apoptosis measured by TUNEL and other assays.

rat neural retina cells = assay: FA production in fresh rat retina pieces ex vivo; conditions: FIG. 26; for FA production with apoptotic stimulus: rat neural retina
Description: as §1, §2

human neural retina = assay: Cell Death Detection ELISA of neural retinal apoptosis
Description: To evaluate neural retinal apoptosis, pieces of human neural retina were analyzed by using a Cell Death Detection […] kit. This photometric enzyme immunoassay provides the quantitative in vitro determination of cytoplasmic histone-associated DNA fragments (mono- and oligonucleosomes) after induced cell death (shown in FIG. 24).

## OO [hydrogen peroxide]
[1]; HRPE cells
  FA after exposure to pro-apoptotic agent: significantly elevated FA
Human retina cells
  FA production with apoptotic stimulus: induced
Human retina cells; listed as H2O2
  FA production with apoptotic stimulus: elevated flavoprotein autofluorescence (FA)
Rat neural retina cells
  FA production with apoptotic stimulus: induced
Rat neural retina cells; listed as H2O2
  FA production with apoptotic stimulus: elevated flavoprotein autofluorescence (FA)
Human neural retina; 6 hr, H2O2 200, NAC 1 mM, control 1.0000
  Neural retinal apoptosis, avarage (cytoplasmic histone-associated DNA fragments): 4.3610
Human neural retina; FIG. 24
  Cell death induced by agent: increased

## c1ccc2c(c1)[I+]c1ccccc1-2 [DPI]
[1]
  Effect of toxins on FA signal: abrogate the FA signal

## CCCCCCCCCCCCC/C=C/[C@@H](O)[C@H](CO)NC(C)=O [C2-ceramide]
[1]; HRPE cells
  FA after exposure to pro-apoptotic agent: significantly elevated FA
Human retina cells
  FA production with apoptotic stimulus: elevated flavoprotein autofluorescence (FA)
Rat neural retina cells
  FA production with apoptotic stimulus: elevated flavoprotein autofluorescence (FA)

## CC(=O)N[C@@H](CS)C(=O)O [N-acetyl-cysteine]
[1]; HRPE cells, NAC 1 mM, 30 minutes pre-incubation
  Effect on hydrogen peroxide-induced FA elevations: completely blocked FA elevations
Human retina cells; human retina cells
  Effect on hydrogen peroxide-induced FA production: attenuated
Rat neural retina cells; rat neural retina cells
  Effect on hydrogen peroxide-induced FA production: attenuated
Human neural retina; FIG. 24
  Effect on cell death by hydrogen peroxide: attenuated

## CCCCCCCCCCCCCCC[C@@H](O)[C@H](CO)NC(C)=O [dihydroceramide C2]
[1]; HRPE cells, dihydroceramide C2 50 μM, 30 minutes pre-incubation
  Effect on ceramide-induced FA increases: completely blocked FA increases
